Reference: patent publication US6024955A, “Peptides and monoclonal antibodies” (Toagosei Co. Ltd., priority 1995, dated 2000)

Key:
[1] = test system: MV833 antibody; conditions: 20 μM peptide solution coated on plate
Method: The 67 peptides synthesized by the above procedures correspond to the entire region of human VPF 121. Therefore, by examining the reactivity of the 67 peptides with MV833 antibody, it is possible to identify the portion of VPF with which MV833 reacts. Then, the reactivity of the 67 peptides with MV833 antibody was examined by an enzyme immunoassay. Briefly, 20 μM peptide solutions each containing one of the 67 peptides were added to a 96-well NOS plate (Coaster) and left at room temperature for 2 hours. After each well was washed with 0.1% BSA-PBS 3 times, 2% BSA-PBS was added thereto and left at room temperature for 1 hour. After the removal of 2% BSA-PBS, MV833 (in 1% BSA-PBS solution) was added to the plate and left at room temperature for 1 hour. After each well was washed with 0.1% BSA-PBS 6 times, peroxidase-labelled sheep anti-mouse IgG (Amersham) (in 0.1% BSA-PBS) was added thereto and left at room temperature for 1 hour. After each well was washed with 0.1% BSA-PBS 6 times, 0.2 M Tris-citrate buffer (pH 5.2) containing 8.3 mg/ml orthophenylenediamine dihydrochloride and 0.01% hydrogen peroxide was added for coloring. The reaction was terminated by adding 2 N sulfuric acid and then absorbance (OD490/650) was measured.

[2] = test system: Human fibrosarcoma (HT-1080); assay: Antitumor test, joint use with an existing carcinostatic, HT-1080 in nude mice; conditions: mitomycin alone, 6 mg/kg, tail vein
Method: Human fibrosarcoma (HT-1080) subcutaneously subcultured in nude mice was cut out in a section of about 2 mm square and inoculated subcutaneously into 6 nude mice of another group using a trocar. On the next day of the inoculation, the existing carcinostatic mitomycin (3 mg/kg) or cisplatin (5 mg/kg) was injected into the tail vein once, and the monoclonal antibody of the invention was injected into the tail vein at a dose of 12.5 μg/mouse every 4 days from the next day of the transplantation.
In those groups which received an existing carcinostatic alone, 3 or 6 mg/kg of mitomycin or 5 or 10 mg/kg of cisplatin was administered in a similar manner as employed in the joint administration groups (i.e. every 4 days into the tail vein).
In the group which received the monoclonal antibody alone, 12.5 μg/mouse of the monoclonal antibody was administered similarly (i.e. every 4 days into the tail vein).
The tumor volume of each mouse was calculated by measuring the diameter of the tumor with the passage of time. At the same time, changes in body weight were also observed.

| Molecule | reactivity with MV833 antibody (absorbance OD490/650, FIG. 1) [1] | antitumor activity (tumor volume, FIG. 3) [2] | changes in body weight (FIG. 4) [2] |
| --- | --- | --- | --- |
| FKPSCVPLMRCG [Peptide 32] | reacted strongly |  |  |
| SFLQHNKCECRP [Peptide 60] | reacted strongly |  |  |
| CO[C@@]12[C@H](COC(N)=O)C3=C(C(=O)C(C)=C(N)C3=O)N1C[C@@H]1N[C@@H]12 [mitomycin] |  | strong antitumor activity was observed | loss in body weight was also observed |
| KCECRPKKDRAR [Peptide 63] | reacted strongly |  |  |
| KPSCVPLMRCGG [Peptide 33] | reacted strongly |  |  |
| YIFKPSCVPLMR [Peptide 31] | reacted strongly |  |  |
